US4264498A, “Process for the preparation of 1,3-disubstituted-2-azetidinones from triazines” (Fujisawa Pharmaceutical Co., Ltd., priority 1976, dated 1981)
≈ marks a conversion by molar mass, not a printed value.

Legend:
Type in all cases: cell-based
Bacillus subtilis = test: antimicrobial activity (MIC) against Bacillus subtilis
Pseudomonas aeruginosa = test: antimicrobial activity (MIC) against Pseudomonas aeruginosa
Staphylococcus aureus = test: antimicrobial activity (MIC) against Staphylococcus aureus

Row | SMILES | MIC (Pseudomonas aeruginosa) | MIC (Staphylococcus aureus) | also measured
1 | O=C(O)CN1CC(NC(=O)Cc2ccccc2)C1=O (centres unmarked) [Compound A, 2-(3-phenylacetamido-2-oxo-1-azetidinyl)acetic acid] |  |  | MIC (Bacillus subtilis): 250 µg/mL (≈ 953 µM)
2 | NC(CCOc1ccc(C(=NO)C(=O)NC2CN(C(C(=O)O)c3ccc(O)cc3)C2=O)cc1)C(=O)O (centres unmarked) [Compound C, 2-[3-[2-{4-(3-amino-3-carboxypropoxy)phenyl}-2-hydroxyiminoacetamido]-2-oxo-1-azetidinyl]-2-(4-hydroxyphenyl)acetic acid] | 2.5 µg/mL (≈ 5 µM) |  | 
3 | O=C(NC1CN(C(CSc2ccccc2)C(=O)O)C1=O)C(=NO)c1ccccc1 (centres unmarked) [Compound D, 2-[3-(2-phenyl-2-hydroxyiminoacetamido)-2-oxo-1-azetidinyl]-3-phenylthiopropionic acid] |  | 250 µg/mL (≈ 605 µM) | 
4 | NC(CCOc1ccc(C(=NO)C(=O)NC2CN(C(C(=O)O)c3cccs3)C2=O)cc1)C(=O)O (centres unmarked) [Compound G] | 4 µg/mL (≈ 8.16 µM) |  | 
5 | O=C(NC1CN(C(C(=O)O)c2ccco2)C1=O)C(=NO)c1ccccc1 (centres unmarked) [Compound H, 2-[3-(2-phenyl-2-hydroxyiminoacetamido)-2-oxo-1-azetidinyl]-2-(2-furyl)acetic acid] | 60 µg/mL (≈ 168 µM) |  | 

More lines, main results first:

Row | MIC (Pseudomonas aeruginosa) | MIC (Staphylococcus aureus) | SMILES | also measured
6 | 4 µg/mL (≈ 8.26 µM) |  | NC(CCOc1ccc(C(=NO)C(=O)NC2CN(C(C(=O)O)c3ccccc3)C2=O)cc1)C(=O)O (centres unmarked) [Compound B, 2-[3-[2-{4-(3-amino-3-carboxypropoxy)phenyl}-2-hydroxyiminoacetamido]-2-oxo-1-azetidinyl]-2-phenylacetic acid] | 
7 |  | 60 µg/mL (≈ 144 µM) | O=C(NC1CN(C(C(=O)O)c2cccc3ccccc23)C1=O)C(=NO)c1ccccc1 (centres unmarked) [Compound E, 2-[3-(2-phenyl-2-hydroxyiminoacetamido)-2-oxo-1-azetidinyl]-2-(1-naphthyl)acetic acid] | 
8 |  | 250 µg/mL (≈ 629 µM) | O=C(NC1CN(C(Cc2ccc(O)cc2)C(=O)O)C1=O)C(=NO)c1ccccc1 (centres unmarked) [Compound F, 2-[3-(2-phenyl-2-hydroxyiminoacetamido)-2-oxo-1-azetidinyl]-3-(4-hydroxyphenyl)propionic acid] | 
